Measurements published in ChEMBL document CHEMBL1125942, “A potent, simple derivative of an analog of the CC-1065 alkylation subunit” (Bioorg Med Chem Lett, 1991).
Converted amounts (≈) assume the structure as drawn.

Experiments:
L1210 [1] = experiment: Concentration required for 50% cell growth inhibition against L1210 mouse lymphocytic leukemia; format: functional, cell-based
L1210 [2] = experiment: Compound was tested for relative inhibitory concentration required for 50% cell growth inhibition against L1210 mouse lymphocytic leukemia to untreated controls; format: functional

SMILES	IC50 (L1210 [1])	Relative IC50 (L1210 [2])
CC(C)(C)OC(=O)N1CC2CC23C1=CC(=O)c1ccccc13 (racemic)	50 ng/mL (≈ 168 nM)	0.02
Cl.NNC(=O)N1CC(CCl)c2c1cc(O)c1ccccc21 (racemic)	1 ng/mL	1
COc1c(O)c2c(c3cc(C(=O)N4CCc5c4c(O)c(OC)c4[nH]c(C(=O)N6C[C@H]7C[C@@]78C6=CC(=O)c6[nH]cc(C)c68)cc54)[nH]c13)CCN2C(N)=O [(+)-CC-1065]	0.01 ng/mL (≈ 0.0142 nM)	100
CC(C)(C)OC(=O)NNC(=O)N1CC(CCl)c2c1cc(O)c1ccccc21 (racemic)	100 ng/mL (≈ 255 nM)	0.01
OC1=CC2=NCC3CC23c2ccccc21 (racemic)	2000 ng/mL (≈ 10100 nM)	0.0005
